System: Cardiac Arrhythmia in Dogs
Assay: Ouabain induced arrhythmias: correction of existing ventricular arrhythmia by i.v. infusion
Assay type: in vivo, adult mongrel dogs
Settings: Canis lupus familiaris, iv, 0.5 h; Ouabain-Induced arrhythmia model; dogs under barbiturate anaesthesia; infusion into a femoral vein at 1 mg/kg/min; active if reversion to sinus rhythm maintained for at least 30 minutes; tested as difumarate hemihydrate salt, dose computed as free base; read-out: Correcting Dose mg/kg, i.v. (computed as free base)
Procedure: Correction of existing cardiac arrhythmias of ventricular origin is carried out on (1) adult mongrel dogs which are under barbiturate anaesthesia during the test. A Grass Model 7 Polygraph was used for recording femoral arterial blood pressure (Statham P23AC Transducer) and the electro- cardiagram (Grass 7P4 Preamplifier). Ouabain was given intravenously in an initial dose of 40 µg/kg and in a second dose of 20 µg/kg 30 minutes after the first dose and in subsequent doses of 10 µg/kg which were repeated at 15 min. intervals as required for producing cardiac arrhythmias that persisted for at least 15 minutes. When the arrhythmias were established, the test compounds were administered by infusion (Harvard Model 942 Infusion Pump) into a femoral vein at a rate of 1 mg/kg/min. Concentration of compound was adjusted according to the weight of the dog to allow a volume infusion of 1 ml/min. The compound was considered to be active as antiarrhythmic agent if reversion to sinus rhythm occurred which was maintained for at least 30 minutes.
Data obtained for one preferred compound, namely 1-[2-(dimethylamino)ethyl]α,α-diphenyl-3-pyrrolidine- acetamide as represented by its defumarate hemihydrate salt are shown in Table 1.

CN(C)CCN1CCC(C(C(N)=O)(c2ccccc2)c2ccccc2)C1 (stereo not drawn) [Example 5, 1-2-(Dimethylamino)ethyl]-α,α-diphenyl-3-pyrrolidine-acetamide difumarate, hemihydrate]
minimal effective dose: 5 mg/kg

From patent EP0178946A2, “1-(Aminoalkyl)-alpha, alpha-diaryl pyrrolidine-piperidine- and homopiperidine- acetamides and acetonitriles” (A.H. ROBINS COMPANY, INCORPORATED, priority 1984, dated 1986)
